Experimental data reported in a melting point compilation (Tetko et al.; mined from patent text by program, amines drawn as free bases though some values may be those of a salt).
Residues, ends and D or L forms follow the SMILES beside them. *: point of attachment. Boc = CC(C)(C)OC(=O)*; NHNH2 = NN*

melting point [°C]	SMILES
244	COc1cc(N)c(C(N)=O)cc1C(=O)N[C@H]1CCN(Cc2ccc(F)cc2)C[C@H]1OC (relative stereo)
224 to 225	CNC(=O)c1ccc(C=CC(=O)NCC(=O)N(C)c2ccc(C)c(COc3cccc4c3nc(SC)n4C)c2C)cc1
60	COC(=O)Cc1ccc(OCCNC(=O)C2Cc3ccccc3N2S(=O)(=O)c2ccc(-c3ccc(F)cc3)c(C(F)(F)F)c2)cc1 (configuration not stated)
140	O=C(Nc1cccc(Cc2ccccc2)c1)c1ccn2c1CSC2c1cccnc1 (configuration not stated)
255	O=C(c1cccs1)N1CCN(c2c([N+](=O)[O-])c(=O)n(Cc3ccccc3)c3ncccc23)CC1
166 to 168	CCCCc1ncc(C(=O)OC)c(=O)n1Cc1ccc(-c2ccccc2C(=O)O)cc1
160 to 161	COC(=O)C(Cc1ccccc1)Oc1ccc2cc(CNC(=O)c3ccc(C4CCCCC4)cc3)ccc2c1Br (configuration not stated)
200	O=C(OC1CCC1)c1ccc(O)c(C(=O)O)c1
154 to 155	COCCOCCn1cc(C(=O)NCc2ccc(Cl)cc2)c(=O)c2cc(CSC)ccc21
220	O=C(N[C@H]1CC[C@H](CCN2CCN(c3nccc4c3OCC4)CC2)CC1)c1ccc(-c2ccccc2)cc1
158 to 161	O=C(COc1ccc(NC(=O)OCCO)cc1)OCCOC(=O)COc1ccc(NC(=O)OCCO)cc1
151 to 153	COc1ccc(NCCCCNC(C)=O)c2c1C(=O)c1ccccc1C2=O
108	COc1cc2c(c(OC)c1/C=C/c1ccc(C=O)cc1)C(C)(C)CCC2(C)C
181 to 183	CCCc1nc2c(N)nc3ccccc3c2n1CCC1(O)CCOCC1
157 to 160	COc1ccc2c(c1)C(=O)Cc1c(cccc1C(=O)O)S2
171 to 172	CCc1nn(CC)c(C(N)=O)c1Cc1ccc2oc(-c3ccccc3C(=O)O)c(Br)c2c1
162 to 170	O=C(O)[C@@H]1Cc2c(ncn2Cc2ccccc2)CN1C(=O)C(c1ccc(Cl)cc1)c1ccc(Cl)cc1
191 to 192	COc1cc(O)c2c(=O)c(OC)c(-c3ccc(O)cc3OC)oc2c1
157 to 158	Cc1ccc(C2c3c(C)c(N4CCN(c5ccc(C)cc5)CC4)c(C)c(C)c3OC2(C)C)cc1 (configuration not stated)
228 to 230	CCN1C(=O)NC(Cc2c[nH]c3ccccc23)C1CCc1cc(C(F)(F)F)cc(C(F)(F)F)c1 (configuration not stated)

melting point [°C]	SMILES
226 to 228	O=C(Nc1ccc2c(c1)C(=O)NC2=O)C(=O)N1CCC(Cc2ccc(F)cc2)CC1
77 to 78	O=C1c2ccccc2CCn2cc(SC(F)(F)F)cc21
238 to 241	O=C(O)c1cn2c3c(cccc3c1=O)C1CCCCC12 (configuration not stated)
282 to 283	NC(=O)c1ccc2c(c1)S(=O)(=O)c1ccccc1C2=O
174 to 175	O=C1CCCN1[C@@H]1c2cc(C(F)(F)C(F)(F)C(F)(F)F)ccc2OC(CF)(CF)[C@H]1O (relative stereo)
143 to 145	COC(=O)C1=C(C(OC)OC)NC(C)=C(C(=O)OC(C)C)C1c1ccccc1[N+](=O)[O-] (configuration not stated)
81	CCOC(=O)C[C@H]1c2ccc(OC)cc2CC[C@H]1c1ccc(OC)cc1 (racemic)
127 to 128	Cc1cccc(C(=O)c2nc(-c3ccccn3)no2)c1
199 to 204	Cc1ccc(S(=O)(=O)n2c(CCCC(=O)O)cc3nc(Cl)ccc32)c2ccccc12
151 to 152	O=C1CCc2ccc(OC/C=C/CN3CCN(c4cccc(Cl)c4Cl)CC3)cc2N1
186 to 188	Cc1cc(CCC(=O)OC(C)(C)C)cc(-c2nc(=O)c3ccc(Cl)cc3s2)n1
132 to 134	COC(=O)C1=C(C)NC(C)=C(C(=O)OCC2CCC(=O)O2)C1c1ccccc1[N+](=O)[O-] (configuration not stated)
148 to 153	CO[C@@H]1C=C2C=C3C(=C(C)C(=O)N3C)C[C@]2(C)[C@@H](C)[C@H]1OC(=O)c1cccs1
132 to 136	O=C(c1cccc(Cl)c1)N1CCc2cc(S(=O)(=O)N3CC(c4ccccc4)NC3=O)ccc21 (configuration not stated)
188 to 190	COc1nc2ccc(Cl)cc2c(-c2ccccc2Cl)c1C(=O)O
129 to 131	CC(C)(C)c1ccc(C(O)CCCN2CCC(OC(c3ccccc3)c3ccccc3)CC2)cc1 (configuration not stated)
183 to 185	O=C(N[C@@H](CSC(=O)c1ccccc1)C(=O)O)c1ccccc1
151 to 153	CC1CC(c2ccc(OCC(=O)O)c(Cl)c2Cl)=CC(=O)C1C (configuration not stated)
47 to 49	CC=C1C(=O)c2ccccc2OC1c1ccccc1 (configuration not stated)
199 to 200	COCCc1nc2c(N)nc3ccccc3c2n1CCCCNC(=O)c1cc2ccccc2cn1

melting point [°C]	SMILES
57 to 59	CCOC(=O)C(=CNc1ccn(Cc2ccccc2)n1)C(=O)OCC
158 to 160	NNc1ccc2c(c1)CCNC2=O
207 to 209	CCCCOc1c(CNC(=O)OC(C)(C)C)n(CC(C)C)c(=O)c2ccc(/C=C/C(=O)O)cc12
231 to 232	COc1ccc(C(=O)Nc2cc([N+](=O)[O-])ccc2Cl)cc1OC
258 to 261	O=C(Nc1ccc(CN2C(=O)CNC2=O)cc1)c1cc(=O)c2ccccc2o1
133	CCOC(=O)c1nn(-c2ccc(Cl)cc2Cl)c(-c2ccc(Br)cc2)c1C
> 300	CC(=O)N(C)[C@H]1CCN(C(=O)c2ccc(-c3[nH]nc4c3C(=O)c3c(NC(=O)NN5CCOCC5)cccc3-4)s2)C1
150 to 151	C#CCn1c(=O)sc2cc(F)c(-c3ccc(C(F)(F)F)n(C)c3=O)cc21
251	CC(=O)Nc1ccc2c(c1)C(c1cccn1-c1cccc(Cl)c1)C(=O)N2 (configuration not stated)
268 to 269	Cc1ccc(-c2ccc3c(c2)C=C(C(=O)Nc2ccc(CP4(=O)OCCCO4)cc2)CCO3)cc1
204 to 207	Cc1ccc(-c2nc(-c3ccc(O)cc3O)nc(-c3ccc(O)cc3O)n2)c(C)c1
151 to 152	CC(C)(C#N)c1cc(C=Cc2ccc(OS(N)(=O)=O)cc2)cc(Cn2cncn2)c1
190	Cn1cncc1C(O)(c1ccc(Cl)cc1)c1ccc2c(c1)c(CCc1cccc(Cl)c1)cc(=O)n2C (configuration not stated)
61 to 66	COC(=O)N(Cc1ccccc1)[C@H]1CC[C@H](c2ccc(O)cc2)CC1
93 to 96	COc1ccc(S(=O)(=O)C(CC=C(C)C)(CC=C(C)C)C(=O)NO)cc1
85 to 86	CC(N)C(=O)Nc1cc(OCC(F)(F)F)ccc1-c1ccccn1 (configuration not stated)
202 to 205	O=C(Nc1ccc(Br)cc1)c1ccccc1[N+](=O)[O-]
210	COC(=O)C1=C(C)NC(C)=C(C(=O)O)C1c1ccccc1Cl (configuration not stated)

More lines, now with the values behind:

SMILES	melting point [°C]
CCOC(=O)C=C1CN=C(c2ccccc2F)c2cc(Cl)ccc2N1	109 to 111
CCCCn1c(=O)c2[nH]c(Cl)nc2n(CCCC)c1=O	152
Clc1ccc2c(C3=CCNCC3)c[nH]c2c1	181 to 185
CN(C)/C=C(\C#N)c1cccc(Br)c1	102 to 105
CC(=O)[C@@H]1CC(=S)N(C(C)=O)C1	49 to 51
O=c1[nH]ncc2cc(Cl)ccc12	272 to 273
CCOC(=O)C(=CNc1sc(I)cc1C(=O)OC)C(=O)OCC	163 to 164
Cc1cc([Si](C)(C)C)c(C)cc1[Si](C)(C)C	56 to 57.5
NC(=O)C1CCCCc2cc3c(nc21)CCCCC3 (configuration not stated)	179
CCOC(=O)c1nnc(C(=O)OCC)nn1	85 to 90
CC(C)C(C)NC1=Nc2ccc(Cl)cc2S(=O)(=O)N1C (configuration not stated)	102 to 105
CC(O)c1ccccc1N (configuration not stated)	50 to 52
CSc1nnc(-c2ccc(-c3ccccc3)cc2)n1-c1ccccc1F	199 to 200
OCC(O)CSC(=S)Nc1ccccn1 (configuration not stated)	98
CC(=O)OC(C)c1ccc(-c2ccc(OCc3ccccc3)cc2)cc1 (single isomer, unassigned; (+))	137
C=CCN1Cc2cnc(C)n2-c2ccc(Cl)cc2C1c1ccccc1F (configuration not stated)	140 to 145
CC1Cc2cc3c(cc2C(c2ccc([N+](=O)[O-])cc2)=NN1C(=O)CCl)OCO3 (configuration not stated)	158 to 160
O=C1CCC(c2ccccc2)(N2CCCCC2)CC1	116 to 117
ICCCOc1ccc(OCCCI)cc1	93 to 95
COCc1ccc2ccc(C=O)nc2c1Cl	118 to 121

SMILES	melting point [°C]
CC(C)c1ccc(-n2cc(C#N)cc2N)c(Br)c1	106
CCC(=CC(CSc1nnc(C)s1)=NO)C(C)[N+](=O)[O-] (configuration not stated)	75 to 76
C[Si](C)(C)Oc1ccc(SSc2ccc(O[Si](C)(C)C)cc2)cc1	21 to 22
CCCCCCCCCCCCc1ccccc1C(SCCC(=O)O)C(=O)O (configuration not stated)	44 to 46
C=CCC1=C(C)C(OC(=O)C2C(C=CC(C)=O)C2(C)C)CC1=C (configuration not stated)	< 50
CCCCn1c(S)nnc1C(=O)O	108 to 110
O=Cc1cc(Cl)c2c(c1)CCCO2	51
CCOC(=O)COc1ccc(Nc2nccc(-c3ccncc3)n2)cc1	109 to 111
COc1cc(C=O)cc(OC)c1Cl	112 to 113
CCCc1nc2c(N)nc(C)c(C)c2n1CCCCCCS(C)(=O)=O	157 to 158
COC(=O)c1cc(C(C)OC)c(C(F)(F)F)cc1N (configuration not stated)	112 to 114
CC(C)CC(NC(=O)OC(C)(C)C)C(=O)NCC(=O)NCC(=O)NC(C)C(=O)NCC(=O)NN (configuration not stated) (Boc-LGGAG-NHNH2; configuration not given here)	174 to 176
CCOCn1c(Sc2ccc(Cl)c(Cl)c2)c(Br)c(C#N)c1-c1ccc(Cl)cc1	105 to 107
COC(=O)c1ccc(N2CCN(C)CC2)cc1	117 to 119
CCOC(=O)C=Cc1ccc(C#N)cc1	71
CCOCn1c(Nc2cc(C)cc(C)c2)c(CC)c(=O)[nH]c1=O	175 to 176
O=c1c2ccccc2ccc2ccc(SC(F)(F)F)cc12	87 to 88
CCCc1nc2c(N)nc(C)c(C)c2n1CC1(O)CCC1	180 to 181
Cc1c(C=CC#N)cccc1[N+](=O)[O-]	136
